The nature of data set [1]: Compound stability in HEK293 cell lysate. The conditions noted are these: HEK293 cell lysate (1 mg/ml), 37 °C, 150 μM 31, after 24 h. It counts as in vitro ADME. On the procedure: (§1) H Stability and permeability of 31 […]
(§2) stability was performed as described 21. Briefly, 400 µl of human serum or cell lysate from HEK293 cells (1 mg/ml) were incubated at 37 °C with 150 μM of 31 with 5% (v/v) DMSO. Samples of 45 µl were taken out at different time points and quenched with 50 µl of aqueous urea (6 M) and 100 µl of ACN.
(§3) Following centrifugation, 2 µl of a 2% (m/v) K 2CO3 solution in H2O and 1.5 µl of a 0.2 M Fmoc-OSu in ACN were added to the samples, which were then shaken at 1000 rpm for two hours at room temperature. This enabled the quantification of the residual amount of the compound via UPLC-UV/VIS at 260 nm. Compound peak areas were integrated. The experiments were performed in triplicate.
(§4) After 24h, 7% of 31 remained […]
(§5) detectable in cell lysate, and 20 % of 31 were still present in human serum (Figure S 38). […]
(§6) shown as mean values relative to the peak intensity at 0 h. Error bars represent the SD of three replicates.
(§7) For cell permeability studies, 40 µM of 31 were incubated with HEK293 cells in DMEM medium supplemented with 10 % FCS at 37°C overnight. The cells were harvested, washed extensively with ice-cold PBS and lysed in RIPA buffer. The sample was diluted 1:1 (v/v) with a solution of ACN : H 2O (1:1 )) before analyzing via UPLC-MS. […]

A further data set deals with HEK293 cells. Kind of data set: Cell permeability / uptake, UPLC-MS of cell lysate. In kind it is cell-based. The conditions noted are these: 40 µM 31, 37 °C overnight, detected by mass spectrometry in cell lysate. On the procedure: as §1, §2, §3, §4, §5, §6, §7
B Mass spectrum of the peak detected at 3.62 […]

“Also recorded” adds a separate entry of the source.

In data set [1], `CCCCCCCCCCCCSC[C@@H](N)C(=O)NCCCC[C@@H]1NC(=O)[C@H](CCC(N)=O)NC1=O` [Compound 31] came in with a compound remaining of 7%. The “Uptake by HEK293 cells” value in the data set with HEK293 cells was “uptake of compound 31 by HEK293 cells; also recorded: showed uptake by HEK293 cells”.
